Here are results for 28 compounds from patent US9487504B2, “Imidazolyl analogs as syk inhibitors” (Merck Sharp & Dohme Corp., priority 2012, dated 2016).

The first experiment addresses T1, recombinant human GST-Syk (Homo sapiens, UniProt P43405).
T1 construct: purchased Carna Biosciences 08-176
In words: Homogeneous Time-Resolved Fluorescence (HTRF) assay for the recombinant human Syk enzyme. The format is biochemical. To be noted: ATP 25 μM, 10-dose titration, read-out: rhSYK Activity. The procedure:
Syk inhibition may be determined using the following assay protocol:
Homogeneous Time-Resolved Fluorescence (HTRF) Assay for the Recombinant Human Syk Enzyme:
A recombinant GST-hSyk fusion protein was used to measure potency of compounds to inhibit human Syk activity. The recombinant human GST-Syk (Carna Biosciences #08-176) ([…]) was incubated with various concentrations of the inhibitor diluted in DMSO (0.1% final concentration) for 10 minutes at room temperature in 15 mM Tris-HCl (pH 7.5), 0.01% tween 20, 2 mM DTT in 384 well plate format. To initiate the reaction the biotinylated substrate peptide (250 nM final concentration) that contains the phosphorylation site for Syk was added with magnesium (5 mM final concentration) and ATP (25 μM final concentration). Final volume of the reaction was 10 μL. Phosphorylation of the peptide was allowed to proceed for 45 minutes at room temperature. To quench the reaction and detect the phosphorylated product, 2 nM of a Europium-anti-phosphotyrosine antibody (Perkin Elmer #AD0161) and 70 nM SA-APC (Perkin-Elmer #CR130-100) were added together in 15 mM Tris pH 7.5, 40 mM EDTA, 0.01% tween 20. Final volume of the quenching solution was 10 μL. The resulting HTRF signal was measured after 30 minutes on an EnVision (Perkin-Elmer) reader using a time-resolved fluorescence protocol. IC50 was determined following 10-dose titration (10 μM to 0.508 nM) and four parameter logistic curve fitting using the Merck Assay Data Analyzer. The rhSyk activity (IC50) is expressed as +++ (100 nM or less), ++ (between 100 and 1000 nM), + (between 1 and 10 μM).
For orientation: TR-FRET usually uses a lanthanide donor and a delayed reading to cut background.
On to `CC(C)(O)c1cn(-c2cc(Cl)cc(Nc3cc(C(F)(F)F)ccn3)n2)cn1` [Example 90, 2-[1-(4-chloro-6-{[4-(trifluoromethyl)pyridin-2-yl]amino}pyridin-2-yl)-1H-imidazol-4-yl]propan-2-ol], for which the IC50 is not above 100 nM.
In the case of `Cc1cc(Nc2nccc(C(F)(F)F)n2)cc(-n2cnc([C@H]3CC[C@@H](C(=O)O)CC3)c2)c1` [2 (cis), Cis-4-[1-(3-methyl-5-{[4-(trifluoromethyl)pyrimidin-2-yl]amino}phenyl)-1H-imidazol-4-yl]cyclohexanecarboxylic acid], the IC50 is not above 100 nM.
As for `Cc1cc(Nc2cc(C(F)(F)F)ccn2)nc(-n2cnc([C@]3(O)CC[C@@H](C(=O)O)CC3)c2)c1` [Example 27, cis-4-hydroxy-4-[1-(4-methyl-6-{[4-(trifluoromethyl)pyridin-2-yl]amino}pyridin-2-yl)-1H-imidazol-4-yl]cyclohexanecarboxylic acid], the IC50 was not above 100 nM.
As to `Cc1cc(Nc2cc(C(F)(F)F)ccn2)nc(-n2cnc(C3(O)CCN(C(N)=O)CC3)c2)c1` [Example 116, 4-Hydroxy-4-[1-(4-methyl-6-{[4-(trifluoromethyl)pyridin-2-yl]amino}pyridin-2-yl)-1H-imidazol-4-yl]piperidine-1-carboxamide], the IC50 was not above 100 nM.
On the same count and under the same terms, the value for `Cc1cc(Nc2cc(C(C)(C)C)ccn2)nc(-n2cnc([C@]3(O)CC[C@@H](O)CC3)c2)c1` [Example 47, cis-1-(1-{6-[(4-tert-butylpyridin-2-yl)amino]-4-methylpyridin-2-yl}-1H-imidazol-4-yl)cyclohexane-1,4-diol] was not above 100 nM; that for `Cc1cc(Nc2nccc(C(F)(F)F)n2)cc(-n2cnc([C@]3(O)CC[C@@H](C(=O)N(C)C)CC3)c2)c1` [Example 32, cis-4-hydroxy-N,N-dimethyl-4-[1-(3-methyl-5-{[4-(trifluoromethyl)-pyrimidin-2-yl]amino}-phenyl)-1H-imidazol-4-yl]cyclohexane-carboxamide] was not above 100 nM.
`CCOC(=O)C1(C)CCC(O)(c2cn(-c3cc(C)cc(Nc4nccc(C(F)(F)F)n4)c3)cn2)CC1` (stereo not drawn) [Example 22, Ethyl trans-4-hydroxy-1-methyl-4-[1-(3-methyl-5-{[4-(trifluoromethyl)pyrimidin-2-yl]amino}phenyl)-1H-imidazol-4-yl]cyclohexanecarboxylate]: the IC50 was not above 100 nM.
Take `Cc1cc(Nc2nccc(C(F)(F)F)n2)cc(-n2cnc([C@]3(O)CC[C@H](O)[C@@H](C)C3)c2)c1` [Example 54, (1S,3S,4S)-3-methyl-1-[1-(3-methyl-5-{[4-(trifluoromethyl)pyrimidin-2-yl]amino}phenyl)-1H-imidazol-4-yl]cyclohexane-1,4-diol]: the IC50 is not above 100 nM.
Still for that read-out and setting: the same measure for `CC(C)(O)c1cn(-c2cccc(Nc3cc(C(F)(F)F)ccn3)n2)cn1` [Example 94, 2-[1-(6-{[4-(trifluoromethyl)-pyridin-2-yl]amino}-pyridin-2-yl)-1H-imidazol-4-yl]propan-2-ol]: not above 100 nM; for `Cc1cc(Nc2cc(C(F)(F)F)ccn2)nc(-n2cnc(CCC(=O)O)c2)c1` [Example 74, 3-[1-(4-methyl-6-{[4-(trifluoromethyl)-pyridin-2-yl]amino}-pyridin-2-yl)-1H-imidazol-4-yl]-propanoic acid]: 100 to 1000 nM; for `CCCCOC(=O)[C@H]1CC[C@H](C(C)(O)c2cn(-c3cc(C)cc(Nc4nccc(C(F)(F)F)n4)c3)cn2)CC1` (relative stereo) [Example 12, Butyl trans-4-{1-hydroxy-1-[1-(3-methyl-5-[(4-(trifluoromethyl)-pyrimidin-2-yl]amino}-phenyl)-1H-imidazol-4-yl]ethyl}cyclohexane-carboxylate]: 100 to 1000 nM.
As for `Cc1cc(Nc2nccc(C3CC3)n2)cc(-n2cnc(C[C@H](O)C(=O)O)c2)c1` [Example 8, (2S)-3-(1-{3-[(4-cyclopropylpyrimidin-2-yl)amino]-5-methylphenyl}-1H-imidazol-4-yl)-2-hydroxypropanoic acid], the IC50 was not above 100 nM.
Same read-out and setting: the same measure for `OC(c1cn(-c2cccc(Nc3cc(C(F)(F)F)ccn3)n2)cn1)(C1CC1)C1CC1` [Example 83, dicyclopropyl[1-(6-{[4-(trifluoromethyl)-pyridin-2-yl]amino}pyridin-2-yl)-1H-imidazol-4-yl]methanol]: not above 100 nM; for `Cc1cc(Nc2nccc(C(F)(F)F)n2)cc(-n2cnc(C(=O)O)c2)c1` [Example 78, 1-(3-methyl-5-{[4-(trifluoromethyl)-pyrimidin-2-yl]amino}-phenyl)-1H-imidazole-4-carboxylic acid]: not above 100 nM.
For the compound `CC(C)(O)c1cn(-c2cc(C(F)(F)F)cc(Nc3cc(C(F)(F)F)ccn3)n2)cn1` [Example 91, 2-{1-[4-(trifluoro-methyl)-6-{[4-(trifluoromethyl)-pyridin-2-yl]amino}-pyridin-2-yl]-1H-imidazol-4-yl}propan-2-ol], the IC50 lay in the range of 100 to 1000 nM.
On the same count and under the same terms, the value for `Cc1cc(Nc2nccc(C(F)(F)F)n2)cc(-n2cnc(C(C)(C)C#N)c2)c1` [Example 110, 2-Methyl-2-[1-(3-methyl-5-{[4-(trifluoromethyl)pyrimidin-2-yl]amino}phenyl)-1H-imidazol-4-yl]propanenitrile] was 100 to 1000 nM.
For `Cc1cc(Nc2nccc(C(F)(F)F)n2)cc(-n2cnc([C@]3(O)CC[C@H](C(N)=O)CC3)c2)c1` [Example 33, trans-4-hydroxy-4-[1-(3-methyl-5-{[4-(trifluoro-methyl)pyrimidin-2-yl]amino}phenyl)-1H-imidazol-4-yl]-cyclohexanecarboxamide], the IC50 was not above 100 nM.
Same read-out and setting: the same measure for `Cc1cc(Nc2cc(C3CC3)ccn2)nc(-n2cnc(CCC(=O)O)c2)c1` [Example 115, 3-(1-(6-((4-cyclopropylpyridin-2-yl)amino)-4-methylpyridin-2-yl)-1H-imidazol-4-yl)propanoic acid]: not above 100 nM; for `Cc1cc(Nc2nccc(C(F)(F)F)n2)cc(-n2cnc(CC#N)c2)c1` [Example 77, [1-(3-methyl-5-{[4-(trifluoromethyl)pyrimidin-2-yl]amino}-phenyl)-1H-imidazol-4-yl]acetonitrile]: not above 100 nM.
Turning to `CC(C)(O)CCc1cn(-c2cc(Nc3nccc(C(F)(F)F)n3)cc(N3CCOCC3)c2)cn1` [Example 105, 2-methyl-4-[1-(3-morpholin-4-yl-5-{[4-(trifluoromethyl)pyrimidin-2-yl]amino}-phenyl)-1H-imidazol-4-yl]butan-2-ol], the IC50 is not above 100 nM.
The same measure, in the same setting: the value for `Cc1cc(Nc2nccc(C(F)(F)F)n2)cc(-n2cnc([C@H]3CC[C@H](C(=O)O)CC3)c2)c1` [2 (trans), Trans-4-[1-(3-methyl-5-{[4-(trifluoromethyl)pyrimidin-2-yl]amino}phenyl)-1H-imidazol-4-yl]cyclohexanecarboxylic acid] was not above 100 nM; that for `C=C(C)c1cn(-c2cc(C)cc(Nc3nccc(C(F)(F)F)n3)c2)cn1` [Example 112, N-{3-Methyl-5-[4-(prop-1-en-2-yl)-1H-imidazol-1-yl]phenyl}-4-(trifluoromethyl)pyrimidin-2-amine] was not above 100 nM; that for `COC(=O)c1ccc2c(c1)ncn2-c1cc(C)cc(Nc2nccc(C)n2)c1` [Example 73, Methyl 1-{3-methyl-5-[(4-methyl-pyrimidin-2-yl)amino]phenyl}-1H-benzimidazole-5-carboxylate] was not above 100 nM.
Turning to `Cc1cc(Nc2nccc(C(F)(F)F)n2)cc(-n2cnc(C(C)(O)[C@H]3CC[C@H](C(N)=O)CC3)c2)c1` (relative stereo) [Example 7, trans-4-{1-hydroxy-1-[1-(3-methyl-5-{[4-(trifluoromethyl)pyrimidin-2-yl]amino}phenyl)-1H-imidazol-4-yl]ethyl]cyclohexanecarboxamide], the IC50 was not above 100 nM.
Turning to `COC(=O)c1cn(-c2cc(C)cc(Nc3nccc(C(F)(F)F)n3)c2)cn1` [Example 98, Methyl 1-(3-methyl-5-{[4-(trifluoromethyl)-pyrimidin-2-yl]amino}phenyl)-1H-imidazole-4-carboxylate], the IC50 is not above 100 nM.
With `COC(=O)c1cn(-c2cccc(Nc3cc(C(F)(F)F)ccn3)n2)cn1` [Example 96, Methyl 1-(6-{[4-(trifluoromethyl)pyridin-2-yl]amino}pyridin-2-yl)-1H-imidazole-4-carboxylate], the IC50 is not above 100 nM.
The same measure, in the same setting: the same measure for `Cc1cc(Nc2nccc(C(F)(F)F)n2)cc(-n2cnc(C3(O)CCC(C(=O)O)C(C)(C)C3)c2)c1` (racemic) [Example 25, 4-hydroxy-2,2-dimethyl-4-[1-(3-methyl-5-{[4-(trifluoromethyl)pyrimidin-2-yl]amino}phenyl)-1H-imidazol-4-yl]-cyclohexanecarboxylic acid]: not above 100 nM; for `Cc1cc(Nc2nccc(C(F)(F)F)n2)cc(-n2cnc([C@]3(O)CC[C@@](C)(C(=O)O)C[C@H]3O)c2)c1` (single isomer, unassigned) [5 (isomer 2)]: not above 100 nM.

Still in this experiment, the particulars now being: ATP 25 μM, 10-dose titration, read-out: rhSYK IC50.
For the compound `Cc1cc(Nc2nccc(C(F)(F)F)n2)cc(-n2cnc([C@H]3CC[C@@H](C(=O)O)CC3)c2)c1` [2 (cis), Cis-4-[1-(3-methyl-5-{[4-(trifluoromethyl)pyrimidin-2-yl]amino}phenyl)-1H-imidazol-4-yl]cyclohexanecarboxylic acid], the IC50 turned out to be 12.5 nM.
For the compound `Cc1cc(Nc2cc(C(F)(F)F)ccn2)nc(-n2cnc([C@]3(O)CC[C@@H](C(=O)O)CC3)c2)c1` [Example 27, cis-4-hydroxy-4-[1-(4-methyl-6-{[4-(trifluoromethyl)pyridin-2-yl]amino}pyridin-2-yl)-1H-imidazol-4-yl]cyclohexanecarboxylic acid], the IC50 was found to be 0.757 nM.
The same measure, in the same setting: the same measure for `Cc1cc(Nc2cc(C(F)(F)F)ccn2)nc(-n2cnc(C3(O)CCN(C(N)=O)CC3)c2)c1` [Example 116, 4-Hydroxy-4-[1-(4-methyl-6-{[4-(trifluoromethyl)pyridin-2-yl]amino}pyridin-2-yl)-1H-imidazol-4-yl]piperidine-1-carboxamide]: 3.6 nM; for `Cc1cc(Nc2nccc(C(F)(F)F)n2)cc(-n2cnc([C@H]3CC[C@H](C(=O)O)CC3)c2)c1` [2 (trans), Trans-4-[1-(3-methyl-5-{[4-(trifluoromethyl)pyrimidin-2-yl]amino}phenyl)-1H-imidazol-4-yl]cyclohexanecarboxylic acid]: 1.2 nM.
